PubChem BioAssay (NCI)
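1) Cells in 96-well plates. 2) Compound, 48 h, 5 concentrations. 3) Linear interpolation between surrounding doses. 4) Unreached endpoint = highest concentration. At the GI50, growth is halved. Definition used: TGI = concentration required for complete inhibition of growth.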

Experiments:
Assay in all cases: growth of human tumour cells (NCI), 48 h
HS 578T breast = tested on: HS 578T breast
RXF 393 renal = tested on: RXF 393 renal
EKVX NSCLC = tested on: EKVX NSCLC
KM12 colon = tested on: KM12 colon
UACC-62 melanoma = tested on: UACC-62 melanoma
SNB-75 CNS = tested on: SNB-75 CNS
SK-MEL-28 melanoma = tested on: SK-MEL-28 melanoma
BT-549 breast = tested on: BT-549 breast
NCI-H23 lung = tested on: NCI-H23 lung
786-0 renal = tested on: 786-0 renal
UACC-257 melanoma = tested on: UACC-257 melanoma
OVCAR-4 ovarian = tested on: OVCAR-4 ovarian
T-47D breast = tested on: T-47D breast
LOX IMVI melanoma = tested on: LOX IMVI melanoma
SR leukemia = tested on: SR leukemia
RPMI-8226 leukemia = tested on: RPMI-8226 leukemia
HL-60(TB) leukemia = tested on: HL-60(TB) leukemia
MOLT-4 leukemia = tested on: MOLT-4 leukemia
HCT-15 colon = tested on: HCT-15 colon
HOP-92 NSCLC = tested on: HOP-92 NSCLC
SK-MEL-5 melanoma = tested on: SK-MEL-5 melanoma
UO-31 renal = tested on: UO-31 renal
NCI-H460 lung = tested on: NCI-H460 lung
HCC-2998 colon = tested on: HCC-2998 colon
U251 CNS = tested on: U251 CNS
OVCAR-3 ovarian = tested on: OVCAR-3 ovarian
SW-620 colon = tested on: SW-620 colon
HT29 colon = tested on: HT29 colon
SK-OV-3 ovarian = tested on: SK-OV-3 ovarian
COLO 205 colon = tested on: COLO 205 colon
OVCAR-5 ovarian = tested on: OVCAR-5 ovarian
DU-145 prostate = tested on: DU-145 prostate
A549 NSCLC = tested on: A549 NSCLC
MALME-3M melanoma = tested on: MALME-3M melanoma
A498 renal = tested on: A498 renal
K-562 leukemia = tested on: K-562 leukemia
SN12C renal = tested on: SN12C renal
NCI-H522 lung = tested on: NCI-H522 lung
IGROV1 ovarian = tested on: IGROV1 ovarian
MDA-MB-435 = tested on: MDA-MB-435
SF-268 CNS = tested on: SF-268 CNS
CAKI-1 renal = tested on: CAKI-1 renal
ACHN renal = tested on: ACHN renal
NCI-H226 lung = tested on: NCI-H226 lung
TK-10 renal = tested on: TK-10 renal
SF-539 CNS = tested on: SF-539 CNS
M14 melanoma = tested on: M14 melanoma
SF-295 CNS = tested on: SF-295 CNS
MCF7 breast = tested on: MCF7 breast
MDA-MB-231 breast = tested on: MDA-MB-231 breast
SK-MEL-2 melanoma = tested on: SK-MEL-2 melanoma

CCN(CC)CCCN1C(=O)c2c(c(C)c3c(oc4ccc(O)cc43)c2C)C1=O
GI50 (HS 578T breast): 2150 nM
TGI (HS 578T breast): 5310 nM
GI50 (RXF 393 renal): 1490 nM
TGI (RXF 393 renal): 2970 nM
GI50 (EKVX NSCLC): 1690 nM
TGI (EKVX NSCLC): 3270 nM
GI50 (KM12 colon): 1830 nM
TGI (KM12 colon): 3550 nM
GI50 (UACC-62 melanoma): 16100 nM
TGI (UACC-62 melanoma): 31500 nM
GI50 (SNB-75 CNS): 1590 nM
TGI (SNB-75 CNS): 2980 nM
GI50 (SK-MEL-28 melanoma): 1820 nM
TGI (SK-MEL-28 melanoma): 3380 nM
GI50 (BT-549 breast): 1750 nM
TGI (BT-549 breast): 3260 nM
GI50 (NCI-H23 lung): 1990 nM
TGI (NCI-H23 lung): 3800 nM
GI50 (786-0 renal): 1740 nM
TGI (786-0 renal): 3320 nM
GI50 (UACC-257 melanoma): 1880 nM
TGI (UACC-257 melanoma): 3920 nM
GI50 (OVCAR-4 ovarian): 1930 nM
TGI (OVCAR-4 ovarian): 3680 nM
GI50 (T-47D breast): 2170 nM
TGI (T-47D breast): 5330 nM
GI50 (LOX IMVI melanoma): 1790 nM
TGI (LOX IMVI melanoma): 3320 nM
GI50 (SR leukemia): 765 nM
TGI (SR leukemia): 2780 nM
GI50 (RPMI-8226 leukemia): 1850 nM
TGI (RPMI-8226 leukemia): 4280 nM
GI50 (HL-60(TB) leukemia): 1570 nM
TGI (HL-60(TB) leukemia): 3430 nM
GI50 (MOLT-4 leukemia): 1800 nM
TGI (MOLT-4 leukemia): 4260 nM
GI50 (HCT-15 colon): 1680 nM
TGI (HCT-15 colon): 3220 nM
GI50 (HOP-92 NSCLC): 1330 nM
TGI (HOP-92 NSCLC): 2810 nM
GI50 (SK-MEL-5 melanoma): 1710 nM
TGI (SK-MEL-5 melanoma): 3120 nM
GI50 (UO-31 renal): 1580 nM
TGI (UO-31 renal): 3010 nM
GI50 (NCI-H460 lung): 1830 nM
TGI (NCI-H460 lung): 3470 nM
GI50 (HCC-2998 colon): 2670 nM
TGI (HCC-2998 colon): 7390 nM
GI50 (U251 CNS): 1580 nM
TGI (U251 CNS): 2980 nM
GI50 (OVCAR-3 ovarian): 1850 nM
TGI (OVCAR-3 ovarian): 3420 nM
GI50 (SW-620 colon): 1700 nM
TGI (SW-620 colon): 3520 nM
GI50 (HT29 colon): 1550 nM
TGI (HT29 colon): 3020 nM
GI50 (SK-OV-3 ovarian): 1700 nM
TGI (SK-OV-3 ovarian): 3100 nM
GI50 (COLO 205 colon): 2640 nM
TGI (COLO 205 colon): 10800 nM
GI50 (OVCAR-5 ovarian): 1700 nM
TGI (OVCAR-5 ovarian): 3130 nM
GI50 (DU-145 prostate): 1840 nM
TGI (DU-145 prostate): 3290 nM
GI50 (A549 NSCLC): 1650 nM
TGI (A549 NSCLC): 3230 nM
GI50 (MALME-3M melanoma): 1730 nM
TGI (MALME-3M melanoma): 3250 nM
GI50 (A498 renal): 12600 nM
TGI (A498 renal): 27200 nM
GI50 (K-562 leukemia): 1710 nM
TGI (K-562 leukemia): 3770 nM
GI50 (SN12C renal): 1780 nM
TGI (SN12C renal): 3360 nM
GI50 (NCI-H522 lung): 1840 nM
TGI (NCI-H522 lung): 3750 nM
GI50 (IGROV1 ovarian): 1740 nM
TGI (IGROV1 ovarian): 3310 nM
GI50 (MDA-MB-435): 1840 nM
TGI (MDA-MB-435): 3530 nM
GI50 (SF-268 CNS): 1690 nM
TGI (SF-268 CNS): 3430 nM
GI50 (CAKI-1 renal): 2330 nM
TGI (CAKI-1 renal): 6520 nM
GI50 (ACHN renal): 1620 nM
TGI (ACHN renal): 2980 nM
GI50 (NCI-H226 lung): 1930 nM
TGI (NCI-H226 lung): 4270 nM
GI50 (TK-10 renal): 1840 nM
TGI (TK-10 renal): 3350 nM
GI50 (SF-539 CNS): 1720 nM
TGI (SF-539 CNS): 3110 nM
GI50 (M14 melanoma): 1760 nM
TGI (M14 melanoma): 3200 nM
GI50 (SF-295 CNS): 1820 nM
TGI (SF-295 CNS): 3260 nM
GI50 (MCF7 breast): 1810 nM
TGI (MCF7 breast): 3710 nM
GI50 (MDA-MB-231 breast): 1910 nM
TGI (MDA-MB-231 breast): 3580 nM
GI50 (SK-MEL-2 melanoma): 17000 nM
TGI (SK-MEL-2 melanoma): 35900 nM
